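Interpolation was linear, between the two tested concentrations surrounding the appropriate level; five concentrations were tested over 48 hours in 96-well plates. TGI: concentration producing complete growth inhibition.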
Columns and labels:
Assay in all cases: NCI tumour cell line growth inhibition, 48 h
DMS 273 small cell lung = test system: DMS 273 small cell lung
DMS 114 small cell lung = test system: DMS 114 small cell lung
OVCAR-5 ovarian = test system: OVCAR-5 ovarian
SK-MEL-5 melanoma = test system: SK-MEL-5 melanoma
SK-MEL-28 melanoma = test system: SK-MEL-28 melanoma
NCI-H23 lung = test system: NCI-H23 lung
KM12 colon = test system: KM12 colon
LOX IMVI melanoma = test system: LOX IMVI melanoma
UACC-257 melanoma = test system: UACC-257 melanoma
COLO 205 colon = test system: COLO 205 colon
SNB-19 CNS = test system: SNB-19 CNS
UACC-62 melanoma = test system: UACC-62 melanoma
M14 melanoma = test system: M14 melanoma
SK-MEL-2 melanoma = test system: SK-MEL-2 melanoma
A498 renal = test system: A498 renal
OVCAR-8 ovarian = test system: OVCAR-8 ovarian
XF 498 CNS = test system: XF 498 CNS
SNB-78 CNS = test system: SNB-78 CNS
MOLT-4 leukemia = test system: MOLT-4 leukemia
HL-60(TB) leukemia = test system: HL-60(TB) leukemia
SK-OV-3 ovarian = test system: SK-OV-3 ovarian
HCT-15 colon = test system: HCT-15 colon
RXF-631 renal = test system: RXF-631 renal
SN12C renal = test system: SN12C renal
DLD-1 colon = test system: DLD-1 colon
CAKI-1 renal = test system: CAKI-1 renal
HCT-116 colon = test system: HCT-116 colon
HOP-92 NSCLC = test system: HOP-92 NSCLC
UO-31 renal = test system: UO-31 renal
A549 NSCLC = test system: A549 NSCLC
OVCAR-3 ovarian = test system: OVCAR-3 ovarian
NCI-H522 lung = test system: NCI-H522 lung
LXFL 529 NSCLC = test system: LXFL 529 NSCLC
HCC-2998 colon = test system: HCC-2998 colon
KM20L2 colon = test system: KM20L2 colon
HT29 colon = test system: HT29 colon
ACHN renal = test system: ACHN renal
EKVX NSCLC = test system: EKVX NSCLC
SNB-75 CNS = test system: SNB-75 CNS
K-562 leukemia = test system: K-562 leukemia
786-0 renal = test system: 786-0 renal
U251 CNS = test system: U251 CNS
NCI-H226 lung = test system: NCI-H226 lung
OVCAR-4 ovarian = test system: OVCAR-4 ovarian
RPMI-8226 leukemia = test system: RPMI-8226 leukemia
RXF 393 renal = test system: RXF 393 renal
CCRF-CEM leukemia = test system: CCRF-CEM leukemia
TK-10 renal = test system: TK-10 renal
SF-539 CNS = test system: SF-539 CNS
MALME-3M melanoma = test system: MALME-3M melanoma
SW-620 colon = test system: SW-620 colon
SF-295 CNS = test system: SF-295 CNS
IGROV1 ovarian = test system: IGROV1 ovarian
HOP-62 NSCLC = test system: HOP-62 NSCLC
SF-268 CNS = test system: SF-268 CNS
NCI-H460 lung = test system: NCI-H460 lung
HOP-18 NSCLC = test system: HOP-18 NSCLC
M19-MEL melanoma = test system: M19-MEL melanoma
SN12K1 renal = test system: SN12K1 renal
NCI/ADR-RES ovarian = test system: NCI/ADR-RES ovarian
MCF7 breast = test system: MCF7 breast
P388 leukemia = test system: P388 leukemia
P388/ADR leukemia = test system: P388/ADR leukemia

Measured: TGI

CNC(C)Cc1ccccc1OC (centres undefined)
> 100 µM: DMS 273 small cell lung | DMS 114 small cell lung | OVCAR-5 ovarian | SK-MEL-5 melanoma | SK-MEL-28 melanoma | NCI-H23 lung | KM12 colon | LOX IMVI melanoma | UACC-257 melanoma | COLO 205 colon | SNB-19 CNS | UACC-62 melanoma | M14 melanoma | SK-MEL-2 melanoma | A498 renal | OVCAR-8 ovarian | XF 498 CNS | SNB-78 CNS | MOLT-4 leukemia | HL-60(TB) leukemia | SK-OV-3 ovarian | HCT-15 colon | RXF-631 renal | SN12C renal | DLD-1 colon | CAKI-1 renal | HCT-116 colon | HOP-92 NSCLC | UO-31 renal | A549 NSCLC | OVCAR-3 ovarian | NCI-H522 lung | LXFL 529 NSCLC | HCC-2998 colon | KM20L2 colon | HT29 colon | ACHN renal | EKVX NSCLC | SNB-75 CNS | K-562 leukemia | 786-0 renal | U251 CNS | NCI-H226 lung | OVCAR-4 ovarian | RPMI-8226 leukemia | RXF 393 renal | CCRF-CEM leukemia | TK-10 renal | SF-539 CNS | MALME-3M melanoma | SW-620 colon | SF-295 CNS | IGROV1 ovarian | HOP-62 NSCLC | SF-268 CNS | NCI-H460 lung | HOP-18 NSCLC

CC(=O)NC(CCCNC(=O)OCc1ccccc1)C(=O)O (centres undefined)
> 100 µM: DMS 273 small cell lung | DMS 114 small cell lung | OVCAR-5 ovarian | SK-MEL-5 melanoma | SK-MEL-28 melanoma | NCI-H23 lung | KM12 colon | LOX IMVI melanoma | UACC-257 melanoma | COLO 205 colon | SNB-19 CNS | UACC-62 melanoma | M14 melanoma | SK-MEL-2 melanoma | A498 renal | OVCAR-8 ovarian | XF 498 CNS | SNB-78 CNS | MOLT-4 leukemia | SK-OV-3 ovarian | HCT-15 colon | RXF-631 renal | SN12C renal | DLD-1 colon | CAKI-1 renal | HCT-116 colon | HOP-92 NSCLC | UO-31 renal | A549 NSCLC | OVCAR-3 ovarian | NCI-H522 lung | LXFL 529 NSCLC | HCC-2998 colon | KM20L2 colon | HT29 colon | ACHN renal | M19-MEL melanoma | EKVX NSCLC | SNB-75 CNS | K-562 leukemia | 786-0 renal | U251 CNS | NCI-H226 lung | OVCAR-4 ovarian | RPMI-8226 leukemia | RXF 393 renal | CCRF-CEM leukemia | TK-10 renal | SF-539 CNS | MALME-3M melanoma | SW-620 colon | SF-295 CNS | IGROV1 ovarian | HOP-62 NSCLC | SF-268 CNS | NCI-H460 lung

N=C(N)SCc1cccc([N+](=O)[O-])c1
43.6 µM: HL-60(TB) leukemia
41.2 µM: P388/ADR leukemia
33.6 µM: P388 leukemia
> 78.1 µM: HOP-62 NSCLC
> 67 µM: OVCAR-8 ovarian
> 96.1 µM: SN12C renal
71.8 µM: XF 498 CNS
74.1 µM: CAKI-1 renal
48.3 µM: NCI/ADR-RES ovarian
> 62.3 µM: K-562 leukemia
> 83.8 µM: MCF7 breast
68.3 µM: SF-539 CNS
> 90.6 µM: KM20L2 colon
> 83 µM: NCI-H23 lung
> 31.6 µM: KM12 colon
85.1 µM: HT29 colon
> 83.1 µM: OVCAR-4 ovarian
> 91.2 µM: MOLT-4 leukemia
> 76.6 µM: MALME-3M melanoma
18.2 µM: NCI-H522 lung
> 73.7 µM: SK-MEL-2 melanoma
> 100 µM: DMS 273 small cell lung | OVCAR-5 ovarian | SK-MEL-5 melanoma | LOX IMVI melanoma | UACC-62 melanoma | SNB-78 CNS | HCT-15 colon | A549 NSCLC | HCC-2998 colon | M19-MEL melanoma | EKVX NSCLC | SW-620 colon | SF-295 CNS | IGROV1 ovarian | SF-268 CNS | NCI-H460 lung
89.1 µM: HOP-18 NSCLC
> 81.4 µM: SK-OV-3 ovarian
98.9 µM: SK-MEL-28 melanoma
> 85.9 µM: CCRF-CEM leukemia
> 77.8 µM: UO-31 renal
> 83.7 µM: HCT-116 colon
98.6 µM: SN12K1 renal
47.9 µM: COLO 205 colon
> 75 µM: UACC-257 melanoma
97.6 µM: DLD-1 colon
61.4 µM: RXF 393 renal
39.9 µM: OVCAR-3 ovarian
90.7 µM: DMS 114 small cell lung
89 µM: SNB-75 CNS
97.3 µM: U251 CNS
> 74 µM: A498 renal
59.1 µM: RPMI-8226 leukemia
67.2 µM: NCI-H226 lung
60.9 µM: HOP-92 NSCLC

Reference: PubChem BioAssay (NCI)
